Legend:
[1] = tested on: human patients suffering from relapsing multiple sclerosis (RMS); experiment: Phase II RMS study: brain MRI (Gd+ T1 lesions, T2 lesions); assay type: in vivo; set-up: key to Gd+ T1 lesion rate (subject level), Median / Gd+ T1 Lesion rate, adjusted (negative binomial model): number of Gd+ T1 lesions per scan; conditions: for New or enlarging T2 lesion rate (subject level), Mean ± SD: Weeks 12-24; for Difference in LS means of CFB in cube root of volume of T2 lesions vs placebo: week 24, MMRM
Description: The assessing Investigator and central MRI reader were treatment blinded.
The protocol specified that subjects self-administered the IMP at a set time each day (every 12 hours ±2 hours). Subjects were to take their daily dose more than 1 hour prior to a meal or snack and more than 2 hours after a meal or snack. Clear fluids were allowed at any time. On trial visit days, the IMP was to be administered during the trial visit after the scheduled trial visit procedures (other than post-treatment PK/PD sampling) are completed.
Stratification occurred by region (USA or Western Europe, Eastern Europe and BTKO capable, Eastern Europe and not BTKO capable, and RoW). For the first 7 days, Tecfidera was administered orally at 120 mg twice daily. Following this and for the duration of treatment, Tecfidera was administered orally at 240 mg twice daily.
The protocol specified that MRI scans were to be performed at Screening, at 4-week intervals from Week 12 to 24, and at the End of Treatment Visit at Week 48 (including for subjects receiving Tecfidera who choose to enter the OLE Period). […] If a subject discontinued the study more than 4 weeks after his or her most recent MRI, the protocol specified that an MRI may be obtained at the 4-week Safety Follow-up Visit. The Screening MRI scan was to be acquired before randomization and dosing to allow for the readouts to be read by the central MRI reader (approximately 7 days).
Gadolinium was used to enhance T1-weighted lesions and to optimize clarity and accuracy of reporting. As gadolinium is excreted renally, subjects with acute renal insufficiency (eGFR <45 mL/min/1.73 m^2) will be excluded from the trial.
The protocol specified that brain MRI scans were performed according to a standardized imaging protocol before and after the administration of single-dose gadolinium. Images were assessed and reported by an independent, blinded, centralized MRI reading service, provided by NeuroRx Research. The assessment was performed in the absence of clinical information. Further details, including the scans required and the optimal MRI workflow, were provided in a separate Imaging Manual provided to each trial site by NeuroRx Research. All MRI images were reviewed and reported locally by a radiologist for safety. The local report was to contain only non-MS pathology and was to be provided to the Treating Investigator.
The primary endpoint was the total number of gadolinium-enhancing T1 lesions at Week 12, 16, 20, and 24. The primary analysis was a comparison of each evobrutinib dose arm versus placebo based on this endpoint, with a supportive test for dose-response. Secondary Endpoints
Other covariates were permitted to be considered. […] Descriptive statistics for the total number of Gd+ T1 lesions, at Week 12, 16, 20, and 24, are provided for each treatment group.
Estimation of mean per-scan number of Gd+ T1 lesions at Weeks 12, 16, 20, and 24, for each treatment group, was based on the NB model. In the analysis of each secondary endpoint, other covariates were permitted to be included in the model.
Primary and secondary efficacy endpoints were analysed based on the modified intention-to-treat (mITT) analysis set, consisting of all randomized patients with at least one available baseline and one post-baseline MRI assessment. […] For each endpoint, rate ratio (RR; null-hypothesis RR=1.0) adjusted for baseline disease activity was reported together with associated 95% CI and p-value. The T2 lesion endpoint was analysed similarly. Dose-response relationships between evobrutinib treatment dose and primary and key secondary endpoints were assessed for linear and monotonic trend. The analysis of CFB in cube root of volume of T2 lesions at Week 24 was based on a mixed-effect model for repeated measures, with fixed effects for treatment, week of visit, and treatment-by-week interaction, random effect for subject, and adjustment for baseline cube root of lesion volume. CFB in SF-36 score at Week 24 was analysed similarly. […]

[2] = tested on: human patients suffering from relapsing multiple sclerosis (RMS); experiment: Phase II RMS study: HRQoL SF-36 Physical Component Summary score; assay type: in vivo; conditions: for Difference in LS means of CFB in PCS score vs placebo: week 24, MMRM
Description: Analysis of Primary Endpoint
Primary and secondary efficacy endpoints were analysed based on the modified intention-to-treat (mITT) analysis set, consisting of all randomized patients with at least one available baseline and one post-baseline MRI assessment. […] For each endpoint, rate ratio (RR; null-hypothesis RR=1.0) adjusted for baseline disease activity was reported together with associated 95% CI and p-value. The T2 lesion endpoint was analysed similarly. Dose-response relationships between evobrutinib treatment dose and primary and key secondary endpoints were assessed for linear and monotonic trend. The analysis of CFB in cube root of volume of T2 lesions at Week 24 was based on a mixed-effect model for repeated measures, with fixed effects for treatment, week of visit, and treatment-by-week interaction, random effect for subject, and adjustment for baseline cube root of lesion volume. CFB in SF-36 score at Week 24 was analysed similarly. Descriptive statistics were used to further describe the study outcomes.

[3] = 25 mg QD, listed as evobrutinib
[4] = 75 mg BID, listed as evobrutinib
[5] = 75 mg QD, listed as evobrutinib

Compound: C=CC(=O)N1CCC(CNc2ncnc(N)c2-c2ccc(Oc3ccccc3)cc2)CC1 [Evobrutinib, 1-(4-(((6-amino-5-(4-phenoxyphenyl)pyrimidin-4-yl)amino)methyl)piperidin-1-yl)prop-2-en-1-one]
- Change in volume of T2 lesions from baseline to week 24, Mean ± SD ([1]; 25 mg QD): 0.93 ± 1.85 cc
- Change in volume of T2 lesions from baseline to week 24, Median ([1]; 25 mg QD): 0.05 cc
- Gd+ T1 Lesion rate, adjusted (negative binomial model) ([1]; 25 mg QD): 1.09
- Gd+ T1 lesion rate (subject level), Median ([1]; 25 mg QD): 0.25
- Gd+ T1 lesion rate (subject level; count per scan, weeks 12-24), Mean ± SD ([1]; 25 mg QD): 1.31 ± 3.13
- Total Number of New or Enlarging T2 Lesions at Week 24, Mean ± SD ([1]; 25 mg QD): 6.52 ± 11.57
- Total number of Gd+ T1 lesions at Weeks 12, 16, 20, 24, Mean ± SD ([1]; 25 mg QD): 5.23 ± 12.52
- Total number of Gd+ T1 lesions at Weeks 12, 16, 20, 24, Median (min-max) ([1]; 25 mg QD): 1 (0-76)
- New or enlarging T2 lesion rate (subject level), Mean ± SD ([1]; 25 mg QD): 2.08 ± 4.19
- Difference in LS means of CFB in cube root of volume of T2 lesions vs placebo ([1]; 25 mg QD): 0.05 cm
- Change in volume of T2 lesions from baseline to week 24, Median [1, 3]: increased
- Gd+ T1 lesion rate (subject level; count per scan, weeks 12-24), Mean ± SD [1, 3]: 1.31±3.13
- Change in volume of T2 lesions from baseline to week 24, Mean ± SD ([1]; 75 mg BID): 0.06 ± 0.50 cc
- Change in volume of T2 lesions from baseline to week 24, Median ([1]; 75 mg BID): −0.02 cc
- Gd+ T1 Lesion rate, adjusted (negative binomial model) ([1]; 75 mg BID): 0.34
- Gd+ T1 lesion rate (subject level), Median ([1]; 75 mg BID): 0.0
- Gd+ T1 lesion rate (subject level; count per scan, weeks 12-24), Mean ± SD ([1]; 75 mg BID): 0.35 ± 0.96
- Total Number of New or Enlarging T2 Lesions at Week 24, Mean ± SD ([1]; 75 mg BID): 2.26 ± 4.72
- Total number of Gd+ T1 lesions at Weeks 12, 16, 20, 24, Mean ± SD ([1]; 75 mg BID): 1.39 ± 3.85
- Total number of Gd+ T1 lesions at Weeks 12, 16, 20, 24, Median (min-max) ([1]; 75 mg BID): 0 (0-25)
- New or enlarging T2 lesion rate (subject level), Mean ± SD ([1]; 75 mg BID): 0.73 ± 1.57
- New or enlarging T2 lesion rate (subject level), Mean ± SD [1, 4]: 0.73±1.57
- Difference in LS means of CFB in cube root of volume of T2 lesions vs placebo ([1]; 75 mg BID): −0.35 cm
- Gd+ T1 lesion rate (subject level; count per scan, weeks 12-24), Mean ± SD [1, 4]: 0.35±0.96
- Change in volume of T2 lesions from baseline to week 24, Mean ± SD ([1]; 75 mg QD): 0.01 ± 0.57 cc
- Change in volume of T2 lesions from baseline to week 24, Median ([1]; 75 mg QD): −0.01 cc
- Gd+ T1 Lesion rate, adjusted (negative binomial model) ([1]; 75 mg QD): 0.27
- Gd+ T1 lesion rate (subject level), Median ([1]; 75 mg QD): 0.0
- Gd+ T1 lesion rate (subject level; count per scan, weeks 12-24), Mean ± SD ([1]; 75 mg QD): 0.42 ± 1.17
- Total Number of New or Enlarging T2 Lesions at Week 24, Mean ± SD ([1]; 75 mg QD): 3.57 ± 10.82
- Total number of Gd+ T1 lesions at Weeks 12, 16, 20, 24, Mean ± SD ([1]; 75 mg QD): 1.69 ± 4.69
- Total number of Gd+ T1 lesions at Weeks 12, 16, 20, 24, Median (min-max) ([1]; 75 mg QD): 0 (0-27)
- Total number of Gd+ T1 lesions versus placebo ([1]; 75 mg QD and 75 mg BID, Weeks 12, 16, 20 and 24): significantly reduced Gd+ T1 lesions versus placebo
- New or enlarging T2 lesion rate (subject level), Mean ± SD ([1]; 75 mg QD): 0.89 ± 2.71
- Difference in LS means of CFB in cube root of volume of T2 lesions vs placebo ([1]; 75 mg QD): −0.35 cm
- Gd+ T1 lesion rate (subject level; count per scan, weeks 12-24), Mean ± SD [1, 5]: 0.42±1.17
- Total Gd+ T1 lesions over 4 scans in an outlier patient ([1]; one patient, 25 mg QD): 76
- Dose response of Gd+ T1 lesion count ([1]; weeks 12-24, p<0.01): significant dose response was observed
- Change in SF-36 PCS score from baseline to week 24, Mean ± SD ([2]; 25 mg QD): 0.8 ± 5.93
- Change in SF-36 PCS score from baseline to week 24, Median ([2]; 25 mg QD): 0.3
- Difference in LS means of CFB in PCS score vs placebo ([2]; 25 mg QD): 1.73
- Change in SF-36 PCS score from baseline to week 24, Mean ± SD ([2]; 75 mg BID): 1.1 ± 5.22
- Change in SF-36 PCS score from baseline to week 24, Median ([2]; 75 mg BID): 1.3
- Difference in LS means of CFB in PCS score vs placebo ([2]; 75 mg BID): 1.93
- Change in SF-36 PCS score from baseline to week 24, Mean ± SD ([2]; 75 mg QD): 1.5 ± 7.09
- Change in SF-36 PCS score from baseline to week 24, Median ([2]; 75 mg QD): 0.6
- Difference in LS means of CFB in PCS score vs placebo ([2]; 75 mg QD): 1.95
- Change in SF-36 PCS score from baseline to week 24, Mean ± SD [2, 5]: 1.5±7.09

From patent US12251382B2, “Substituted amino-pyrimidine compound for use in a method for treatment and prevention of multiple sclerosis” (Merck Patent GmbH, priority 2018, dated 2025)
